The values below come from ChEMBL document CHEMBL1126525, “Synthesis and DNA cleaving properties of hybrid molecules containing propargylic sulfones and minor groove binding lexitropsins” (Bioorg Med Chem Lett, 1993).

The test concerns Nucleic Acid. Kind of test: Compound was evaluated for its binding affinity constant to calf thymus DNA. Type of test: nucleic-acid assay. The following applies: Bos taurus.
For the compound `O=S(=O)(CC#CCO)c1cccc2ccccc12`, the Binding affinity stood at 46000 M⁻¹.
For `COC(=O)c1cc(NC(=O)c2cc(NC(=O)c3cc(NC(=O)c4cccc5c(S(=O)(=O)CC#CCO)cccc45)cn3C)cn2C)cn1C` the value was 720000 M⁻¹; for `COC(=O)c1cc(NC(=O)c2cc(NC(=O)c3cc(NC(=O)c4cc(S(=O)(=O)CC#CCO)cc5ccccc45)cn3C)cn2C)cn1C`, 89000 M⁻¹.
